Like-named read-outs stand apart in the source and are kept apart here.
Tests used:
Assay type in all cases: biochemical
aggrecanase-1 = molecular target: T1, aggrecanase-1 (Homo sapiens, UniProt O75173); assay: Aggrecanase-1 inhibitory action (Particle Assay, GAG release from aggrecan-containing polyacrylamide particles)
T1 sequence (O75173 213-837): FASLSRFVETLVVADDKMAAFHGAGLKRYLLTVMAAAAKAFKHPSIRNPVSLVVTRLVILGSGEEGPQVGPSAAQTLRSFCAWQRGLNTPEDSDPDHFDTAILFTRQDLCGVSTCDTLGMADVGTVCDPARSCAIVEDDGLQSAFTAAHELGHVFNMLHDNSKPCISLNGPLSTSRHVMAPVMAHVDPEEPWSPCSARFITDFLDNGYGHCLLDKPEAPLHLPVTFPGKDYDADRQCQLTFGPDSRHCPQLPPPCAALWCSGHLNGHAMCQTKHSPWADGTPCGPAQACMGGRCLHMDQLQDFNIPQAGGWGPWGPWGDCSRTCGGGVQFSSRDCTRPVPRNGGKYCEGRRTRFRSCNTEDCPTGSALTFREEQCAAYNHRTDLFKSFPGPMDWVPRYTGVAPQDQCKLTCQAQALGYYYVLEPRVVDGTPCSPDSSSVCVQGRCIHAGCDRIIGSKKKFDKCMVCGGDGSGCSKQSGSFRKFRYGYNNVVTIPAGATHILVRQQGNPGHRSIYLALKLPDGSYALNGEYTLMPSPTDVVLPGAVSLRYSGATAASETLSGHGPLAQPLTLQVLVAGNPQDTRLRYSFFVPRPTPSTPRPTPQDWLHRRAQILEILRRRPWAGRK
Procedure, shortened: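 Readout was dimethylmethylene blue absorbance (595 nm) of glycosaminoglycan liberated into supernatant, calibrated with whale chondroitin sulfate. Substrate was aggrecan in polyacrylamide particles, digested 15 h at 37° C in Tris-HCl; TC50 (μM) derived from inhibition relative to no-enzyme and no-inhibitor controls.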

MMP-1 = molecular target: T2, MMP-1 (Homo sapiens, UniProt P03956); assay: MMP-1 inhibitory action (Type I collagen Activity Measurement kit, FITC-labeled collagen type I)
T2 sequence (P03956 100-469): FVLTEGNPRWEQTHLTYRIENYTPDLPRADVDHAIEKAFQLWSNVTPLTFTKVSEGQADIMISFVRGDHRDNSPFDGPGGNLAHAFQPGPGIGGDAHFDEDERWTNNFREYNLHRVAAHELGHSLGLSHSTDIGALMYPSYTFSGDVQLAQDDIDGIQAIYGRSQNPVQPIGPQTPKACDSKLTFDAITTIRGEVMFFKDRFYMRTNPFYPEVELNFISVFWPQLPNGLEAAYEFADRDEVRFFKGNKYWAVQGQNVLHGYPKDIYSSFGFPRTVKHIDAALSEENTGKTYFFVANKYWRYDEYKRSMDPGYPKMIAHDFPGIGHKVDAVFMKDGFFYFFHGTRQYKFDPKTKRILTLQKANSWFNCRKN

Recombinant Human MMP-13 = molecular target: T3, Recombinant Human MMP-13 (Homo sapiens, UniProt P45452); assay: MMP-13 inhibitory activity (MMP-13 specific fluorescent substrate with quencher)
T3 construct: purchased R&D systems 511-MM
Procedure, shortened: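 IC50 (μM) derived from % inhibition, normalised to wells without enzyme and without inhibitor, fluorescence read at 325/405 nm. Enzyme and compound preceded addition of the quenched 7-MCA…DPA substrate; Tris-HCl buffer, 25 °C for 1 h, acetic-acid stop.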

[1] = aggrecanase-1 inhibitory action, read-out: IC50 AG1 (Experimental Example 1)
[2] = MMP-1 inhibitory action, FITC-labeled collagen type I, 37° C. for 3 hr, read-out: IC50 MMP1 (Experimental Example 2)
[3] = Recombinant Human MMP-13, fluorescent substrate, 25° C. for 1 h, read-out: IC50 MMP13 (Experimental Example 3)
[4] = Experimental Example 1, read-out: IC50 AG1
[5] = Experimental Example 2, read-out: IC50 MMP1
[6] = Experimental Example 3, read-out: IC50 MMP13

| IC50 (aggrecanase-1; [1]) [nM] | IC50 (MMP-1; [2]) [nM] | IC50 (Recombinant Human MMP-13; [3]) [nM] | IC50 (aggrecanase-1; [4]) [nM] | IC50 (MMP-1; [5]) [nM] | IC50 (Recombinant Human MMP-13; [6]) [nM] | Structure (SMILES) |
| --- | --- | --- | --- | --- | --- | --- |
| < 1000 | ≥ 1000 | < 100 | – | – | – | O=C(O)C1(NS(=O)(=O)c2ccc(-c3ccc(Cl)cc3)cc2)CC1c1cccc(Nc2ccccn2)c1 (stereo not drawn) [Example 1-61] |
| < 100 | ≥ 1000 | < 100 | – | – | – | O=C(CCc1cccc(C2CC2(NS(=O)(=O)c2ccc(-c3ccc(Cl)cc3)s2)C(=O)O)c1)N1CCC(O)CC1 (stereo not drawn) [Example 2-224] |
| – | – | – | ≥ 1000 | ≥ 1000 | ≥ 1000 | COc1ccc(CN2CCN(S(=O)(=O)N[C@@]3(C(=O)O)C(C)[C@@H]3c3ccccc3)CC2)cc1 (stereo partly drawn) [Example 2-536] |
| ≥ 1000 | ≥ 10000 | ≥ 1000 | – | – | – | CC1(C)CC1(NS(=O)(=O)c1ccc(-c2ccc(Cl)cc2)s1)C(=O)O (stereo not drawn) [Example 2-147] |
| – | – | – | < 1000 | ≥ 1000 | < 100 | O=C(NCC1(c2ccccc2)CC1(NS(=O)(=O)c1ccc(-c2ccc(Cl)cc2)s1)C(=O)O)c1cccnc1 (stereo not drawn) [Example 2-394] |
| – | – | – | < 100 | < 1000 | < 100 | Cc1cnn(-c2ccc(S(=O)(=O)N[C@@]3(C(=O)O)C(C)[C@@H]3c3ccccc3)s2)c1 (stereo partly drawn) [Example 2-287] |
| ≥ 10000 | ≥ 10000 | ≥ 10000 | – | – | – | O=C(O)C1(NS(=O)(=O)N2CCc3c([nH]c4ccccc34)C2)CC1c1ccccc1 (stereo not drawn) [Example 2-125] |
| – | – | – | < 1000 | ≥ 1000 | < 100 | O=C1CCCN1c1cccc(C2CC2(NS(=O)(=O)c2ccc(-c3cc(C(F)(F)F)on3)s2)C(=O)O)c1 (stereo not drawn) [Example 2-276] |
| – | – | – | ≥ 1000 | ≥ 1000 | ≥ 1000 | CC1[C@H](c2ccccc2)[C@]1(NS(=O)(=O)N1CCc2ccccc2C1)C(=O)O (stereo partly drawn) [Example 2-535] |
| < 100 | ≥ 1000 | < 100 | – | – | – | CN(C)c1cccc(C2CC2(NS(=O)(=O)c2ccc(-c3ccc(Cl)cc3)s2)C(=O)O)c1 (stereo not drawn) [Example 1-133] |
| < 100 | ≥ 1000 | < 100 | – | – | – | O=C(OCCc1ccccc1C1CC1(NS(=O)(=O)c1ccc(-c2cc(C(F)(F)F)on2)s1)C(=O)O)N1CCOCC1 (stereo not drawn) [Example 2-242] |
| – | – | – | ≥ 1000 | ≥ 10000 | < 1000 | O=C(NO)C1(NS(=O)(=O)c2ccc(-c3ccc(Cl)cc3)s2)C2CCCc3ccccc3C21 (stereo not drawn) [Example 2-391] |
| < 1000 | ≥ 1000 | < 100 | – | – | – | CN(C)C(=O)CCc1ccccc1C1CC1(NS(=O)(=O)c1ccc(-c2cc(C(F)(F)F)on2)s1)C(=O)O (stereo not drawn) [Example 2-231] |
| – | – | – | < 1000 | < 1000 | < 100 | O=C(NO)C1(NS(=O)(=O)c2ccc(-c3cc(C(F)(F)F)on3)s2)C2CCc3ccccc3C21 (stereo not drawn) [Example 2-486] |
| < 1000 | ≥ 1000 | < 1000 | – | – | – | O=C(O)C1(NS(=O)(=O)c2ccc(-c3ccc(F)cc3)s2)CC1c1ccccc1 (stereo not drawn) [Example 2-21] |
| – | – | – | ≥ 1000 | ≥ 1000 | < 1000 | O=C(O)C1(NS(=O)(=O)c2ccc(OCc3ccc(Cl)cc3Cl)cc2)C2CCc3ccccc3C21 (stereo not drawn) [Example 2-355] |
| – | – | – | ≥ 1000 | ≥ 1000 | ≥ 1000 | CC1[C@H](c2ccccc2)[C@]1(NS(=O)(=O)N1CCC(OCc2ccc(Cl)cc2)C1)C(=O)O (stereo partly drawn) [Example 2-550] |
| – | – | – | ≥ 1000 | ≥ 10000 | ≥ 1000 | CC1[C@H](c2ccccc2)[C@]1(NS(=O)(=O)N1CCN(c2nc3ccccc3o2)CC1)C(=O)O (stereo partly drawn) [Example 2-464] |
| – | – | – | < 100 | < 1000 | < 100 | Cc1cc(-c2ccc(S(=O)(=O)NC3(C(=O)O)C4CCCc5ccccc5C43)s2)no1 (stereo not drawn) [Example 2-375] |

| IC50 (aggrecanase-1; [1]) [nM] | IC50 (MMP-1; [2]) [nM] | IC50 (Recombinant Human MMP-13; [3]) [nM] | IC50 (aggrecanase-1; [4]) [nM] | IC50 (MMP-1; [5]) [nM] | IC50 (Recombinant Human MMP-13; [6]) [nM] | Structure (SMILES) |
| --- | --- | --- | --- | --- | --- | --- |
| – | – | – | ≥ 1000 | ≥ 1000 | < 1000 | CC1[C@H](c2ccccc2)[C@]1(NS(=O)(=O)N1CCN(c2ccc(C(F)(F)F)cc2)C(=O)C1)C(=O)O (stereo partly drawn) [Example 2-504] |
| < 100 | ≥ 1000 | < 100 | – | – | – | O=C(NCCc1cccc(C2CC2(NS(=O)(=O)c2ccc(-c3cc(C(F)(F)F)on3)s2)C(=O)O)c1)N1CCOCC1 (stereo not drawn) [Example 2-259] |
| < 100 | ≥ 10000 | < 1000 | – | – | – | O=C(O)[C@]1(NS(=O)(=O)c2ccc(-c3ccc(Cl)cc3)s2)C[C@@H]1c1ccccc1Br [Example 2-178] |
| ≥ 1000 | ≥ 10000 | ≥ 1000 | – | – | – | O=C(O)[C@]1(NS(=O)(=O)c2ccc(-c3noc(C(F)(F)F)n3)s2)C[C@@H]1c1ccccc1 [Example 2-44] |
| – | – | – | < 100 | < 1000 | < 100 | CC1[C@](C)(c2ccccc2)[C@]1(NS(=O)(=O)c1ccc(-c2cc(C(F)(F)F)on2)s1)C(=O)O (stereo partly drawn) [Example 2-623] |
| – | – | – | < 100 | < 1000 | < 100 | COCc1cc(-c2ccc(S(=O)(=O)N[C@@]3(C(=O)O)C(C)[C@@H]3c3ccccc3)s2)no1 (stereo partly drawn) [Example 2-404] |
| – | – | – | < 1000 | ≥ 1000 | < 100 | CC1[C@H](c2ccccc2)[C@]1(NS(=O)(=O)c1ccc(-c2nc3ccccc3[nH]2)s1)C(=O)O (stereo partly drawn) [Example 2-584] |
| – | – | – | ≥ 1000 | ≥ 1000 | ≥ 1000 | CC(C)OC(=O)N1CCN(S(=O)(=O)N[C@@]2(C(=O)O)C[C@@H]2c2ccccc2)CC1 [Example 2-510] |
| < 100 | < 1000 | < 1000 | – | – | – | O=C(O)[C@]1(NS(=O)(=O)c2ccc(-c3cc(C(F)F)on3)s2)C[C@@H]1c1ccccc1 [Example 2-99] |
| – | – | – | < 100 | ≥ 1000 | < 100 | CN(C)C(=O)OCCC1(c2ccccc2)CC1(NS(=O)(=O)c1ccc(-c2ccc(Cl)cc2)s1)C(=O)O (stereo not drawn) [Example 2-303] |
| – | – | – | ≥ 1000 | ≥ 1000 | < 1000 | CC1[C@H](c2ccccc2)[C@]1(NS(=O)(=O)c1ccc(-c2cn3cccnc3n2)s1)C(=O)O (stereo partly drawn) [Example 2-571] |
| < 100 | ≥ 10000 | < 1000 | – | – | – | O=C(O)C1(NS(=O)(=O)c2ccc(-c3ccc(Cl)cc3)s2)CC1c1ccccc1 (stereo not drawn) [Example 1-69] |
| < 1000 | ≥ 10000 | < 100 | – | – | – | CN1CCN(C(=O)CCc2cccc(C3CC3(NS(=O)(=O)c3ccc(-c4ccc(Cl)cc4)s3)C(=O)O)c2)CC1 (stereo not drawn) [Example 2-210] |
| – | – | – | < 1000 | ≥ 1000 | < 100 | CC1[C@H](c2ccccc2)[C@]1(NS(=O)(=O)N1CCN(c2ccc(C(F)(F)F)cc2)CC1)C(=O)O (stereo partly drawn) [Example 2-428] |
| – | – | – | < 100 | ≥ 1000 | < 100 | CN1CCC2C(c3ccccc31)C2(NS(=O)(=O)c1ccc(-c2ccc(Cl)cc2)s1)C(=O)O (stereo not drawn) [Example 2-430] |
| – | – | – | < 100 | < 1000 | < 100 | O=C(O)C1(NS(=O)(=O)c2ccc(-c3ccc(Cl)cc3)s2)C2CCC(O)c3ccccc3C21 (stereo not drawn) [Example 2-411] |
| – | – | – | < 100 | < 1000 | < 100 | CC1[C@H](c2ccccc2)[C@]1(NS(=O)(=O)c1ccc(-c2cc(C#N)on2)s1)C(=O)O (stereo partly drawn) [Example 2-579] |
| ≥ 10000 | ≥ 10000 | ≥ 10000 | – | – | – | O=C(O)[C@]1(NS(=O)(=O)c2ccc3c(c2)CN(C2CCCCC2)C3)C[C@@H]1c1ccccc1 [Example 2-166] |
| ≥ 10000 | ≥ 10000 | < 1000 | – | – | – | O=C(Nc1ccccc1)c1ccc(S(=O)(=O)NC2(C(=O)O)CC2c2ccccc2)s1 (stereo not drawn) [Example 2-96] |

From patent US20080261994A1, “CYCLOPROPANE COMPOUNDS AND PHARMACEUTICAL USE THEREOF” (Japan Tobacco Inc., priority 2003, published 2008)
